The text below walks through data of patent US12528816B2, “Substituted imidazo [1,2-b] pyridazines and [1, 2, 4] triazolo [ 4,3-b] pyridazines as camkii inhibitors” (Cardurion Pharmaceuticals, INC., priority 2020, dated 2026).

In the first experiment the target is T1, human CaMKIIδ (Homo sapiens, UniProt Q13557).
T1 construct: Full-length, glutathione-S-transferase(GST)-tagged, human CaMKIIδ was purchased from Carna Biosciences; purchased Carna Biosciences (CaMKIIδ); Wako Pure Chemical Industries (calmodulin) 02-111
Briefly: Evaluation of in vitro CaMKII inhibitory activity (binding assay, TR-FRET).
Conditions: not given
The gist of the method:
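Inhibitors, in eight concentrations of 4-fold dilution, were incubated 1 h at room temperature with a protein–fluorescent probe premix preformed 30 min on ice, containing calmodulin and terbium anti-GST antibody. Displacement read by TR-FRET in duplicate; IC50 by logistic fitting.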
With `C[C@@H](Cn1cncn1)Oc1cc(-c2ccn3ncc(-c4cc(F)ccc4C#N)c3n2)ccn1` [compound 286], the IC50 was < 0.01 µM.

The experiment is the same for the next values; noted with them: in vitro CaMKII inhibitory activity (binding assay), human CaMKIIδ; read-out: Act.
Regarding `C[C@@H](Cn1cnnn1)Oc1cc(-c2ccc3ncc(-c4ccnc(N)c4C#N)n3n2)ccc1F` [compound 233], the IC50 was < 0.01 µM.

Consider `C[C@@H](Cn1cnnn1)Oc1cc(-c2ccc3ncc(-c4nccc(N)c4C#N)n3n2)ccc1F` [compound 234], for which the IC50 was < 0.01 µM.

On to `CNC(=O)c1c(-c2cnc3ccc(-c4ccc(F)c(O[C@@H](C)Cn5cnnn5)c4)nn23)cnn1CCCOC` [compound 235], for which the IC50 was > 0.1 µM.

Take `COCCCn1ncc(-c2cnc3ccc(-c4ccc(F)c(O[C@@H](C)Cn5cnnn5)c4)nn23)c1C(=O)N(C)C` [compound 236]: the IC50 is > 0.1 µM.

With `COCCCn1ncc(-c2cnc3ccc(-c4ccc(F)c(O[C@@H](C)Cn5cnnn5)c4)nn23)c1C(=O)NCCOC` [compound 237], the IC50 was > 0.1 µM.

Take `COC(=O)c1sccc1-c1cnc2ccc(-c3ccc(F)c(O[C@@H](C)Cn4cnnn4)c3)nn12` [compound 238]: the IC50 is 0.01 to 0.1 µM.

For `COc1cc(-c2cnc3ccc(-c4ccc(F)c(O[C@@H](C)Cn5cnnn5)c4)nn23)c(C#N)cn1` [compound 240], the IC50 is < 0.01 µM.

On to `C[C@@H](Cn1cnnn1)Oc1cc(-c2ccc3ncc(-c4cc(=O)[nH]cc4C#N)n3n2)ccc1F` [compound 241], for which the IC50 was < 0.01 µM.

Consider `C[C@@H](Cn1cnnn1)Oc1cc(-c2ccc3ncc(-c4cc(=O)n(C)cc4C#N)n3n2)ccc1F` [compound 242], for which the IC50 was < 0.01 µM.

Turning to `C[C@@H](Cn1cnnn1)Oc1cc(-c2ccc3ncc(-c4ccsc4C(=O)O)n3n2)ccc1F` [compound 243], the IC50 was > 0.1 µM.

As to `CNC(=O)c1sccc1-c1cnc2ccc(-c3ccc(F)c(O[C@@H](C)Cn4cnnn4)c3)nn12` [compound 245], the IC50 lay in the range of 0.01 to 0.1 µM.

In the case of `C[C@@H](Cn1cnnn1)Oc1cc(-c2ccc3ncc(-c4cc(F)ccc4C#N)n3n2)ccc1F` [compound 246], the IC50 is < 0.01 µM.

On to `C[C@@H](Cn1cnnn1)Oc1cc(-c2ccc3ncc(-c4cccnc4C#N)n3n2)ccc1F` [compound 248], for which the IC50 is < 0.01 µM.

`COc1ccc(-c2cnc3ccc(-c4ccc(F)c(O[C@@H](C)Cn5cnnn5)c4)nn23)c(C#N)n1` [compound 249]: the IC50 is < 0.01 µM.

As for `C[C@@H](Cn1cnnn1)Oc1cc(-c2ccc3ncc(-c4ccn5ccnc5c4C#N)n3n2)ccc1F` [compound 250], the IC50 was < 0.01 µM.

Consider `C[C@@H](Cn1cnnn1)Oc1cccc(-c2ccc3ncc(-c4ccc[nH]c4=O)n3n2)c1` [compound 252, 3-[6-(3-{[(2S)-1-(1H-tetrazol-1-yl)propan-2-yl]oxy}phenyl)imidazo[1,2-b]pyridazin-3-yl]-1,2-dihydropyridin-2-one], for which the IC50 was < 0.01 µM.

Regarding `COCCn1cccc(-c2cnc3ccc(-c4cccc(O[C@@H](C)Cn5cnnn5)c4)nn23)c1=O` [compound 254], the IC50 was < 0.01 µM.

Regarding `C[C@@H](Cn1cnnn1)Oc1cc(-c2ccc3ncc(-c4ccc(=O)[nH]c4C#N)n3n2)ccc1F` [compound 255], the IC50 was < 0.01 µM.

Consider `C[C@@H](Cn1cnnn1)Oc1cc(-c2ccc3ncc(-c4ccc(=O)n(C)c4C#N)n3n2)ccc1F` [compound 256], for which the IC50 is > 0.1 µM.

As to `C[C@@H](Cn1cnnn1)Oc1cccc(-c2ccc3ncc(-c4cccnc4C#N)n3n2)c1` [compound 257, 3-[6-(3-{[(2S)-1-(1H-tetrazol-1-yl)propan-2-yl]oxy}phenyl)imidazo[1,2-b]pyridazin-3-yl]pyridine-2-carbonitrile], the IC50 is < 0.01 µM.

In the case of `C[C@@H](Cn1cnnn1)Oc1cc(-c2ccc3ncc(-c4cccc(N=S5(=O)CCCC5)c4C#N)n3n2)ccc1F` [compound 258], the IC50 is < 0.01 µM.

As for `C[C@@H](Cn1cnnn1)Oc1cccc(-c2ccc3ncc(-c4ccn(C)c(=O)c4C#N)n3n2)c1` [compound 259, 1-methyl-2-oxo-4-[6-(3-{[(2S)-1-(1H-tetrazol-1-yl)propan-2-yl]oxy}phenyl)imidazo[1,2-b]pyridazin-3-yl]-1,2-dihydropyridine-3-carbonitrile], the IC50 was < 0.01 µM.

On to `C[C@@H](Cn1cnnn1)Oc1cccc(-c2ccc3ncc(-c4ccnc(Cl)c4C#N)n3n2)c1` [compound 260], for which the IC50 was < 0.01 µM.

Turning to `CCOc1nccc(-c2cnc3ccc(-c4cccc(O[C@@H](C)Cn5cnnn5)c4)nn23)c1C#N` [compound 261], the IC50 was < 0.01 µM.

For `C[C@@H](Cn1cnnn1)Oc1cccc(-c2ccc3ncc(-c4nccnc4C#N)n3n2)c1` [compound 262], the IC50 is < 0.01 µM.

Turning to `C[C@@H](Cn1cnnn1)Oc1cc(-c2ccc3ncc(-c4cc(N=S(C)(C)=O)ccc4C#N)n3n2)ccc1F` [compound 263], the IC50 is > 0.1 µM.

For `C[C@@H](Cn1cnnn1)Oc1cc(-c2ccc3ncc(-c4cc(N=S5(=O)CCCC5)ccc4C#N)n3n2)ccc1F` [compound 264], the IC50 is > 0.1 µM.

Take `C[C@@H](Cn1cnnn1)Oc1cc(-c2ccc3ncc(-c4cn(C)nc4C(F)(F)F)n3n2)ccc1F` [compound 265]: the IC50 lay within 0.01 to 0.1 µM.

For the compound `Cc1c(-c2cnc3ccc(-c4ccc(F)c(O[C@@H](C)Cn5cnnn5)c4)nn23)c(C(F)(F)F)nn1C` [compound 266], the IC50 is > 0.1 µM.

Consider `COc1nccnc1-c1cnc2ccc(-c3ccc(F)c(O[C@@H](C)Cn4cnnn4)c3)nn12` [compound 268], for which the IC50 was 0.01 to 0.1 µM.

As to `COc1ncc(F)cc1-c1cnc2ccc(-c3ccc(F)c(O[C@@H](C)Cn4cnnn4)c3)nn12` [compound 270], the IC50 is < 0.01 µM.

Consider `C[C@@H](Cn1cnnn1)Oc1cccc(-c2ccc3ncc(-c4cc[nH]c(=O)c4C#N)n3n2)c1` [compound 272, 2-oxo-4-[6-(3-{[(2S)-1-(1H-tetrazol-1-yl)propan-2-yl]oxy}phenyl)imidazo[1,2-b]pyridazin-3-yl]-1,2-dihydropyridine-3-carbonitrile], for which the IC50 was < 0.01 µM.

Turning to `C[C@@H](Cn1cnnn1)Oc1cccc(-c2ccc3ncc(-c4ncncc4C#N)n3n2)c1` [compound 273], the IC50 lay within 0.01 to 0.1 µM.

On to `C[C@@H](Cn1cnnn1)Oc1cccc(-c2ccc3ncc(-c4nccc(C5CC5)c4C#N)n3n2)c1` [compound 274], for which the IC50 was < 0.01 µM.

Regarding `C[C@@H](Cn1cnnn1)Oc1cccc(-c2ccc3ncc(-c4c[n+]([O-])ccc4C#N)n3n2)c1` [compound 276], the IC50 is < 0.01 µM.

In the case of `Cc1cnc(C#N)c(-c2cnc3ccc(-c4cccc(O[C@@H](C)Cn5cnnn5)c4)nn23)n1` [compound 277], the IC50 was < 0.01 µM.

For `Cc1ccc(C#N)c(-c2cnc3ccc(-c4cccc(O[C@@H](C)Cn5cnnn5)c4)nn23)n1` [compound 278], the IC50 is < 0.01 µM.

For the compound `C[C@@H](Cn1cnnn1)Oc1cccc(-c2ccc3ncc(-c4ccncc4C#N)n3n2)c1` [compound 279, 4-[6-(3-{[(2S)-1-(1H-tetrazol-1-yl)propan-2-yl]oxy}phenyl)imidazo[1,2-b]pyridazin-3-yl]pyridine-3-carbonitrile], the IC50 was < 0.01 µM.

As to `C[C@@H](Cn1cnnn1)Oc1cccc(-c2ccc3ncc(-c4nnccc4C#N)n3n2)c1` [compound 280], the IC50 was < 0.01 µM.

In the case of `COc1cnc(-c2cnc3ccc(-c4cccc(O[C@@H](C)Cn5cnnn5)c4)nn23)c(C#N)c1` [compound 281], the IC50 is < 0.01 µM.

On to `C[C@@H](Cn1cnnn1)Oc1cccc(-c2ccc3ncc(-c4cc[n+]([O-])cc4C#N)n3n2)c1` [compound 282], for which the IC50 was in the range of 0.01 to 0.1 µM.

Consider `C[C@@H](Cn1cnnn1)Oc1cccc(-c2ccc3ncc(-c4cnccn4)n3n2)c1` [compound 283], for which the IC50 is < 0.01 µM.

Regarding `COc1cnc(C#N)c(-c2cnc3ccc(-c4cccc(O[C@@H](C)Cn5cnnn5)c4)nn23)n1` [compound 285], the IC50 was < 0.01 µM.

Consider `C[C@@H](Cn1cnnn1)Oc1cncc(-c2ccc3ncc(-c4cc(F)ccc4C#N)n3n2)c1` [compound 287, 4-fluoro-2-[6-(5-{[(2S)-1-(1H-tetrazol-1-yl)propan-2-yl]oxy}pyridin-3-yl)imidazo[1,2-b]pyridazin-3-yl]benzonitrile], for which the IC50 was < 0.01 µM.

`C[C@@H](Cn1cnnn1)Oc1cc(-c2ccc3ncc(-c4nccnc4C#N)n3n2)ccc1F` [compound 290]: the IC50 was < 0.01 µM.

In the case of `C[C@@H](Cn1cnnn1)Oc1cc(-c2ccc3ncn(-c4cc(F)ccc4C#N)c3n2)ccc1F` [compound 292], the IC50 is < 0.01 µM.

As to `C[C@@H](Cn1cnnn1)Oc1ccc(F)c(-c2ccc3ncc(-c4ncccc4C#N)n3n2)c1` [compound 293], the IC50 fell in the range of 0.01 to 0.1 µM.

`C[C@@H](Cn1cnnn1)Oc1cc(-c2ccn3ncc(-c4nccnc4C#N)c3n2)ccc1F` [compound 294]: the IC50 is < 0.01 µM.

On to `C[C@@H](Cn1cnnn1)Oc1cc(-c2ccn3ncc(-c4ncccc4C#N)c3n2)ccc1F` [compound 295], for which the IC50 was < 0.01 µM.

Turning to `C[C@@H](Cn1cnnn1)Oc1cc(F)cc(-c2ccc3ncc(-c4ncccc4C#N)n3n2)c1` [compound 296], the IC50 was < 0.01 µM.

In the case of `C[C@@H](Cn1cnnn1)Oc1cc(-c2ccc3ncc(-c4c(C#N)ccc[n+]4[O-])n3n2)ccc1F` [compound 297], the IC50 lay within 0.01 to 0.1 µM.

As for `C[C@@H](Cn1cnnn1)Oc1cc(-c2ccc3ncc(-c4cc(F)ccc4C#N)n3n2)ncn1` [compound 299], the IC50 lay in the range of 0.01 to 0.1 µM.

On to `C[C@@H](Cn1cnnn1)Oc1cccc(-c2ccc3ncc(-c4[nH]ccc(=O)c4C#N)n3n2)c1` [compound 301, 4-oxo-2-[6-(3-{[(2S)-1-(1H-tetrazol-1-yl)propan-2-yl]oxy}phenyl)imidazo[1,2-b]pyridazin-3-yl]-1,4-dihydropyridine-3-carbonitrile], for which the IC50 fell in the range of 0.01 to 0.1 µM.

For the compound `C[C@@H](Cn1cnnn1)Oc1cccc(-c2ccn3ncc(-c4nccnc4C#N)c3n2)c1` [compound 302], the IC50 was < 0.01 µM.

Consider `C[C@@H](Cn1cnnn1)Oc1cccc(-c2ccc3ncc(-c4ccccc4C=O)n3n2)c1` [compound 303], for which the IC50 is < 0.01 µM.
